Tested on: 843782-103-R-J1-PDC complex spheroid viability
Test: Anticancer human tumor 843782-103-R-J1-PDC patient-derived lung adenocarcinoma cell line growth inhibition [RAS]
Details: for viability, T/C: stronger effect = lower value
How it was run: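 Multi-cell-type spheroids: tumor cells plus HUVEC endothelial cells and mesenchymal stem cells. RAS-pathway inhibitors were combined with targeted agents, each dosed in half-log steps down from clinical Cmax, or from 10 microM when Cmax was unknown.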

[1] = curve of first compound, second compound 0.00316 µM
[2] = curve of first compound, second compound 0.01 µM
[3] = curve of first compound, second compound 0.0316 µM
[4] = curve of first compound, second compound 0.1 µM
[5] = curve of first compound, second compound 0.316 µM
[6] = curve of first compound, second compound 1 µM
[7] = second compound 0.00316 µM, first compound 0.0316 µM
[8] = second compound 0.00316 µM, first compound 0.1 µM
[9] = second compound 0.00316 µM, first compound 0.316 µM
[10] = second compound 0.00316 µM, first compound 1 µM
[11] = second compound 0.01 µM, first compound 0.0316 µM
[12] = second compound 0.01 µM, first compound 0.1 µM
[13] = second compound 0.01 µM, first compound 0.316 µM
[14] = second compound 0.01 µM, first compound 1 µM
[15] = second compound 0.0316 µM, first compound 0.0316 µM
[16] = second compound 0.0316 µM, first compound 0.1 µM
[17] = second compound 0.0316 µM, first compound 0.316 µM
[18] = second compound 0.0316 µM, first compound 1 µM
[19] = second compound 0.1 µM, first compound 0.0316 µM
[20] = second compound 0.1 µM, first compound 0.1 µM
[21] = second compound 0.1 µM, first compound 0.316 µM
[22] = second compound 0.1 µM, first compound 1 µM
[23] = second compound 0.316 µM, first compound 0.0316 µM
[24] = second compound 0.316 µM, first compound 0.1 µM
[25] = second compound 0.316 µM, first compound 0.316 µM
[26] = second compound 0.316 µM, first compound 1 µM
[27] = second compound 1 µM, first compound 0.0316 µM
[28] = second compound 1 µM, first compound 0.1 µM
[29] = second compound 1 µM, first compound 0.316 µM
[30] = second compound 1 µM, first compound 1 µM
[31] = second compound 0.0316 µM, first compound 3.16 µM
[32] = second compound 0.0316 µM, first compound 10 µM
[33] = second compound 0.1 µM, first compound 3.16 µM
[34] = second compound 0.1 µM, first compound 10 µM
[35] = second compound 0.316 µM, first compound 3.16 µM
[36] = second compound 0.316 µM, first compound 10 µM
[37] = second compound 1 µM, first compound 3.16 µM
[38] = second compound 1 µM, first compound 10 µM
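Further: viability read after seven days of compound exposure.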

Question: How did the IC50 [1] turn out when `O=C(c1ccc(F)c(F)c1Nc1ccc(I)cc1F)N1CC(O)([C@@H]2CCCCN2)C1` + C=CC(=O)N1CCN(c2nc(OCC3CCCN3C)nc3c(F)c(-c4nc(N)cc(C)c4C(F)(F)F)c(Cl)cc23)C(C)C1 was run?
Answer: 173 nM

Question: What about the IC50 [2] of the same compound?
Answer: 162 nM

Question: And the IC50 [3]?
Answer: 133 nM

Question: What about the IC50 [4] of the same compound?
Answer: 121 nM

Question: And the IC50 [5]?
Answer: 140 nM

Question: And the IC50 [6]?
Answer: 138 nM

Question: And the viability, T/C (second compound 0.00316 µM, first compound 0.00316 µM)?
Answer: 85.4%

Question: What about the viability, T/C (second compound 0.00316 µM, first compound 0.01 µM) of the same compound?
Answer: 92%

Question: And the viability, T/C [7]?
Answer: 77.5%

Question: And the viability, T/C [8]?
Answer: 61%

Question: And the viability, T/C [9]?
Answer: 38.4%

Question: And the viability, T/C [10]?
Answer: 24.3%

Question: What about the viability, T/C (second compound 0.01 µM, first compound 0.00316 µM) of the same compound?
Answer: 87.5%

Question: And the viability, T/C (second compound 0.01 µM, first compound 0.01 µM)?
Answer: 85.4%

Question: What about the viability, T/C [11] of the same compound?
Answer: 73.2%

Question: What about the viability, T/C [12] of the same compound?
Answer: 59.5%

Question: And the viability, T/C [13]?
Answer: 37.9%

Question: What about the viability, T/C [14] of the same compound?
Answer: 23.5%

Question: What about the viability, T/C (second compound 0.0316 µM, first compound 0.00316 µM) of the same compound?
Answer: 83.4%

Question: And the viability, T/C (second compound 0.0316 µM, first compound 0.01 µM)?
Answer: 80.2%

Question: And the viability, T/C [15]?
Answer: 71%

Question: And the viability, T/C [16]?
Answer: 53.6%

Question: And the viability, T/C [17]?
Answer: 36.8%

Question: And the viability, T/C [18]?
Answer: 20.9%

Question: What about the viability, T/C (second compound 0.1 µM, first compound 0.00316 µM) of the same compound?
Answer: 89.6%

Question: What about the viability, T/C (second compound 0.1 µM, first compound 0.01 µM) of the same compound?
Answer: 79.6%

Question: And the viability, T/C [19]?
Answer: 68.6%

Question: What about the viability, T/C [20] of the same compound?
Answer: 52.7%

Question: What about the viability, T/C [21] of the same compound?
Answer: 35.9%

Question: What about the viability, T/C [22] of the same compound?
Answer: 19.7%

Question: And the viability, T/C (second compound 0.316 µM, first compound 0.00316 µM)?
Answer: 84.5%

Question: What about the viability, T/C (second compound 0.316 µM, first compound 0.01 µM) of the same compound?
Answer: 79.9%

Question: What about the viability, T/C [23] of the same compound?
Answer: 68.3%

Question: What about the viability, T/C [24] of the same compound?
Answer: 51.6%

Question: What about the viability, T/C [25] of the same compound?
Answer: 42%

Question: And the viability, T/C [26]?
Answer: 25.9%

Question: And the viability, T/C (second compound 1 µM, first compound 0.00316 µM)?
Answer: 88.8%

Question: What about the viability, T/C (second compound 1 µM, first compound 0.01 µM) of the same compound?
Answer: 75.5%

Question: What about the viability, T/C [27] of the same compound?
Answer: 70.8%

Question: And the viability, T/C [28]?
Answer: 53.8%

Question: What about the viability, T/C [29] of the same compound?
Answer: 38.5%

Question: And the viability, T/C [30]?
Answer: 25.5%

Question: How did the IC50 [3] turn out when `CC1(O)CCCC1n1c(=O)c(C(F)F)cc2cnc(NC3CCN(S(C)(=O)=O)CC3)nc21` (stereo not given) + C#Cc1c(F)ccc2cc(O)cc(-c3ncc4c(N5CC6CCC(C5)N6)nc(OCC56CCCN5CC(F)C6)nc4c3F)c12 was run?
Answer: 237 nM

Question: And the IC50 [4]?
Answer: 343 nM

Question: What about the IC50 [5] of the same compound?
Answer: 283 nM

Question: And the IC50 [6]?
Answer: 304 nM

Question: And the IC50 (curve of first compound, second compound 3.16 µM)?
Answer: 149 nM

Question: And the IC50 (curve of first compound, second compound 10 µM)?
Answer: < 31.6 nM

Question: What about the viability, T/C [15] of the same compound?
Answer: 98.9%

Question: And the viability, T/C [16]?
Answer: 93.4%

Question: What about the viability, T/C [17] of the same compound?
Answer: 34.7%

Question: And the viability, T/C [18]?
Answer: 41.8%

Question: And the viability, T/C [31]?
Answer: 23.2%

Question: What about the viability, T/C [32] of the same compound?
Answer: 3.99%

Question: What about the viability, T/C [19] of the same compound?
Answer: 102%

Question: What about the viability, T/C [20] of the same compound?
Answer: 82.7%

Question: And the viability, T/C [21]?
Answer: 37%

Question: What about the viability, T/C [22] of the same compound?
Answer: 38.9%

Question: And the viability, T/C [33]?
Answer: 23.6%

Question: And the viability, T/C [34]?
Answer: 3.28%

Question: And the viability, T/C [23]?
Answer: 104%

Question: What about the viability, T/C [24] of the same compound?
Answer: 77.5%

Question: What about the viability, T/C [25] of the same compound?
Answer: 33.8%

Question: What about the viability, T/C [26] of the same compound?
Answer: 37.3%

Question: And the viability, T/C [35]?
Answer: 26.5%

Question: And the viability, T/C [36]?
Answer: 3.67%

Question: And the viability, T/C [27]?
Answer: 97.9%

Question: And the viability, T/C [28]?
Answer: 79.1%

Question: And the viability, T/C [29]?
Answer: 39.2%

Question: What about the viability, T/C [30] of the same compound?
Answer: 31.7%

Question: What about the viability, T/C [37] of the same compound?
Answer: 26.2%

Question: And the viability, T/C [38]?
Answer: 3.42%

Question: What about the viability, T/C (second compound 3.16 µM, first compound 0.0316 µM) of the same compound?
Answer: 84.6%

Question: And the viability, T/C (second compound 3.16 µM, first compound 0.1 µM)?
Answer: 56.5%

Question: What about the viability, T/C (second compound 3.16 µM, first compound 0.316 µM) of the same compound?
Answer: 27.6%

Question: And the viability, T/C (second compound 3.16 µM, first compound 1 µM)?
Answer: 33.9%

Question: What about the viability, T/C (second compound 3.16 µM, first compound 3.16 µM) of the same compound?
Answer: 26%

Question: What about the viability, T/C (second compound 3.16 µM, first compound 10 µM) of the same compound?
Answer: 2.68%

Question: What about the viability, T/C (second compound 10 µM, first compound 0.0316 µM) of the same compound?
Answer: 52.9%

Question: What about the viability, T/C (second compound 10 µM, first compound 0.1 µM) of the same compound?
Answer: 32.7%

Question: And the viability, T/C (second compound 10 µM, first compound 0.316 µM)?
Answer: 30.9%

Question: And the viability, T/C (second compound 10 µM, first compound 1 µM)?
Answer: 27.6%

Question: And the viability, T/C (second compound 10 µM, first compound 3.16 µM)?
Answer: 29%

Question: What about the viability, T/C (second compound 10 µM, first compound 10 µM) of the same compound?
Answer: 1.43%

Question: How did the viability, T/C (compound 0.0316 µM) turn out when `Cc1nc(N2CCC3(CC2)COC(C)C3N)c(CO)nc1Sc1ccnc(N)c1Cl` (stereo not given) was run?
Answer: 105% [middle of 4 runs]

Question: And the viability, T/C (compound 3.16 µM)?
Answer: 64.6% [middle of 4 runs]

Question: And the viability, T/C (compound 10 µM)?
Answer: 49% [middle of 4 runs]

Question: How did the viability, T/C (compound 0.00316 µM) turn out when `Nc1ccn(C2OC(CO)C(O)C2(F)F)c(=O)n1` (stereo not given) was run?
Answer: 107% [middle of 4 runs]

Question: What about the viability, T/C (compound 0.01 µM) of the same compound?
Answer: 101% [middle of 4 runs]

Question: And the viability, T/C (compound 0.1 µM)?
Answer: 3.52% [middle of 4 runs]

Question: What about the viability, T/C (compound 0.316 µM) of the same compound?
Answer: 2.19% [middle of 4 runs]

Question: What about the viability, T/C (compound 1 µM) of the same compound?
Answer: 2.92% [middle of 4 runs]

Question: What about the IC50 (curve of compound) of the same compound?
Answer: 34.1 nM [middle of 4 runs]

Question: Which results are given for `Cc1nc(N2CCC3(CC2)COC(C)C3N)c(CO)nc1Sc1ccnc(N)c1Cl` (stereo not given) + C=CC(=O)N1CCN(c2nc(OCC3CCCN3C)nc3c(F)c(-c4nc(N)cc(C)c4C(F)(F)F)c(Cl)cc23)C(C)C1?
Answer: IC50 [1]: 211 nM; IC50 [2]: 385 nM; IC50 [3]: 200 nM; IC50 [4]: 311 nM; IC50 [5]: 277 nM; IC50 [6]: 313 nM; viability, T/C [7]: 88.9%; viability, T/C [8]: 58.6%; viability, T/C [9]: 47.4%; viability, T/C [10]: 32.8%; viability, T/C (second compound 0.00316 µM, first compound 3.16 µM): 32.5%; viability, T/C (second compound 0.00316 µM, first compound 10 µM): 27.2%; viability, T/C [11]: 79.5%; viability, T/C [12]: 66.8%; viability, T/C [13]: 51.4%; viability, T/C [14]: 37.4%; viability, T/C (second compound 0.01 µM, first compound 3.16 µM): 35.6%; viability, T/C (second compound 0.01 µM, first compound 10 µM): 22.6%; viability, T/C [15]: 77.7%; viability, T/C [16]: 57.6%; viability, T/C [17]: 45.8%; viability, T/C [18]: 36.2%; viability, T/C [31]: 30.5%; viability, T/C [32]: 32.1%; viability, T/C [19]: 70%; viability, T/C [20]: 61.4%; viability, T/C [21]: 51.5%; viability, T/C [22]: 35%; viability, T/C [33]: 35.1%; viability, T/C [34]: 27.1%; viability, T/C [23]: 85.7%; viability, T/C [24]: 67%; viability, T/C [25]: 48%; viability, T/C [26]: 34.2%; viability, T/C [35]: 35.5%; viability, T/C [36]: 26.9%; viability, T/C [27]: 80.6%; viability, T/C [28]: 64.3%; viability, T/C [29]: 49.7%; viability, T/C [30]: 40.2%; viability, T/C [37]: 31.1%; viability, T/C [38]: 29.7%
